Source: PubChem BioAssay AID1963874 (Molecular Pharmacology Branch, DTP, NCI, 2024)

Test system: 253994-281-T-J1-PDC KRAS-mutant spheroids with HUVEC/MSC, viability
Test: Anticancer human tumor 253994-281-T-J1-PDC patient-derived colorectal carcinoma cell line growth inhibition [KRAS2]
Conditions: for IC50: curve of first compound; for viability, T/C: stronger effect = lower value
Method in brief: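 KRAS-mutant tumor cells were grown as spheroids with HUVEC endothelial cells and human MSCs as stroma. Targeted agents were tested alone and with KRAS pathway inhibitors. Doses started at or near clinical Cmax, or 10 microM, descending half-log.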

[1] = second compound 0.1 µM, first compound 0.0316 µM
[2] = second compound 0.1 µM, first compound 0.1 µM
[3] = second compound 0.1 µM, first compound 0.316 µM
[4] = second compound 0.1 µM, first compound 1 µM
[5] = second compound 0.1 µM, first compound 3.16 µM
[6] = second compound 0.316 µM, first compound 0.0316 µM
[7] = second compound 0.316 µM, first compound 0.1 µM
[8] = second compound 0.316 µM, first compound 0.316 µM
[9] = second compound 0.316 µM, first compound 1 µM
[10] = second compound 0.316 µM, first compound 3.16 µM
[11] = second compound 1 µM, first compound 0.0316 µM
[12] = second compound 1 µM, first compound 0.1 µM
[13] = second compound 1 µM, first compound 0.316 µM
[14] = second compound 1 µM, first compound 1 µM
[15] = second compound 1 µM, first compound 3.16 µM
[16] = second compound 3.16 µM, first compound 0.0316 µM
[17] = second compound 3.16 µM, first compound 0.1 µM
[18] = second compound 3.16 µM, first compound 0.316 µM
[19] = second compound 3.16 µM, first compound 1 µM
[20] = second compound 3.16 µM, first compound 3.16 µM
[21] = second compound 10 µM, first compound 0.0316 µM
[22] = second compound 10 µM, first compound 0.1 µM
[23] = second compound 10 µM, first compound 0.316 µM
[24] = second compound 10 µM, first compound 1 µM
[25] = second compound 10 µM, first compound 3.16 µM
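Note: spheroids exposed to agents for seven days before readout.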
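Throughout, for viability, T/C: percent of DMSO vehicle control viability.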

| Compound | IC50 (second compound 0.1 µM) | IC50 (second compound 0.316 µM) | IC50 (second compound 1 µM) | IC50 (second compound 3.16 µM) | IC50 (second compound 10 µM) | viability, T/C [1] | viability, T/C [2] | viability, T/C [3] | viability, T/C [4] | viability, T/C [5] | viability, T/C [6] | viability, T/C [7] | viability, T/C [8] | viability, T/C [9] | viability, T/C [10] | viability, T/C [11] | viability, T/C [12] | viability, T/C [13] | viability, T/C [14] | viability, T/C [15] | also measured |
| --- | --- | --- | --- | --- | --- | --- | --- | --- | --- | --- | --- | --- | --- | --- | --- | --- | --- | --- | --- | --- | --- |
| CC1COCCN1c1cc(-c2ccnn2C)c2ccnc(-c3ccn[nH]3)c2n1 (stereo not given) + CNCc1ccccc1-c1csc(C(C)Nc2nc(C)nc3cc(OC)c(OC)cc23)c1 | > 3160 nM | > 3160 nM | 296 nM | < 10 nM | < 10 nM | 106% | 76.1% | 50.7% | 60.2% | 52.4% | 91.5% | 73.5% | 46.5% | 55.9% | 57.1% | 85.5% | 67.5% | 47% | 54.8% | 42.1% | viability, T/C (second compound 0.1 µM, first compound 0.01 µM): 85.8%; viability, T/C (second compound 0.316 µM, first compound 0.01 µM): 108%; viability, T/C (second compound 1 µM, first compound 0.01 µM): 89.5%; viability, T/C (second compound 3.16 µM, first compound 0.01 µM): 42.9%; viability, T/C [16]: 42%; viability, T/C [17]: 27.3%; viability, T/C [18]: 17.9%; viability, T/C [19]: 24%; viability, T/C [20]: 14.9%; viability, T/C (second compound 10 µM, first compound 0.01 µM): 0.59%; viability, T/C [21]: 0.21%; viability, T/C [22]: 0.17%; viability, T/C [23]: 0.19%; viability, T/C [24]: 0.16%; viability, T/C [25]: 0.23% |
| CC1OCC2(CCN(c3cnc(Sc4ccnc(N)c4Cl)c(N)n3)CC2)C1N (stereo not given) + CNCc1ccccc1-c1csc(C(C)Nc2nc(C)nc3cc(OC)c(OC)cc23)c1 | > 10000 nM | > 10000 nM | 4610 nM | < 31.6 nM | < 31.6 nM | 93% | 96.7% | 93.3% | 87.9% | 79.1% | 94.7% | 83.9% | 85.6% | 82.5% | 68.1% | 90.3% | 95.2% | 78.7% | 64.8% | 60.9% | viability, T/C (second compound 0.1 µM, first compound 10 µM): 51.8%; viability, T/C (second compound 0.316 µM, first compound 10 µM): 51.8%; viability, T/C (second compound 1 µM, first compound 10 µM): 36.5%; viability, T/C [16]: 43.8%; viability, T/C [17]: 28%; viability, T/C [18]: 31.1%; viability, T/C [19]: 31.2%; viability, T/C [20]: 24.8%; viability, T/C (second compound 3.16 µM, first compound 10 µM): 0.81%; viability, T/C [21]: 0.21%; viability, T/C [22]: 0.25%; viability, T/C [23]: 0.22%; viability, T/C [24]: 0.19%; viability, T/C [25]: 0.23%; viability, T/C (second compound 10 µM, first compound 10 µM): 0.21% |
